{"source": "patent US5001123A", "about": "“2,5-diaryl tetrahydrofurans and analogs thereof as PAF antagonists” (Merck & Co., Inc., priority 1989, dated 1991)", "test_system": "PAF specific receptor binding site, human platelet membranes", "experiment": "inhibition of the binding of [3H] N-methylcarbamoyl-PAF to human platelet membranes", "conditions": "trans configuration", "experimental": "The compounds of formula (I) inhibit PAF induced functions in both the cellular and tissue levels by changing the PAF binding to its specific receptor site. The ability of a compound of formula (I) to inhibit the PAF binding to its specific receptor binding site on rabbit or human platelet or PMN plasma membranes was measured by a recently developed assay.\nThe inhibition of ^3 [H]-PAF or ^3 [H]N-methylcarbamoyl-PAF binding to the human or rabbit platelet or PMN plasma membrane by a PAF antagonist of formula (I) was determined by a method employing isotopic labeling and filtration techniques. Generally, a series of Tris buffered solutions of the selected antagonist at predetermined concentrations were prepared. […] Each washed residue was then suspended in 10 ml scintillation solution (Aquasol 2, New England Nuclear, Conn.) and the radioactivity was counted in a Packard Tri-Carb 460CD Liquid Scintillation System. Defining the counts from a test sample as \"Total binding with antagonist\"; the counts from the control sample C1, as \"Total binding C1 \"; and the counts from the control sample C2 as \"non specific binding C2 \", the percent inhibition of each test antagonist can be determined by the following equations: [formula] […]", "data": [{"smiles": "CCCOc1c(OCC(O)CN2CCOCC2)cc([C@@H]2CC[C@@H](c3cnc(OC)c(OC)c3)O2)cc1S(=O)(=O)CC(C)O", "note": "(stereo partly drawn) [Example 3, trans-2-[3-(2-Hydroxypropyl)sulfonyl-4-n-propoxy-5-(3-1-morpholino-2-hydroxypropoxy)phenyl]-5-[5-(2,3-dimethoxy)pyridyl]tetrahydrofuran]", "values": [{"measurement": "% inhibition of the binding of [3H] Nmethylcarbamoyl-PAF to human platelet membranes", "setting": "3 nM", "value": 11, "unit": "%"}, {"measurement": "% inhibition of the binding of [3H] Nmethylcarbamoyl-PAF to human platelet membranes", "setting": "30 nM", "value": 39, "unit": "%"}]}]}
